Assay [1] has as its target T1, HMBS (Homo sapiens, UniProt P08397).
T1 sequence (P08397 1-361): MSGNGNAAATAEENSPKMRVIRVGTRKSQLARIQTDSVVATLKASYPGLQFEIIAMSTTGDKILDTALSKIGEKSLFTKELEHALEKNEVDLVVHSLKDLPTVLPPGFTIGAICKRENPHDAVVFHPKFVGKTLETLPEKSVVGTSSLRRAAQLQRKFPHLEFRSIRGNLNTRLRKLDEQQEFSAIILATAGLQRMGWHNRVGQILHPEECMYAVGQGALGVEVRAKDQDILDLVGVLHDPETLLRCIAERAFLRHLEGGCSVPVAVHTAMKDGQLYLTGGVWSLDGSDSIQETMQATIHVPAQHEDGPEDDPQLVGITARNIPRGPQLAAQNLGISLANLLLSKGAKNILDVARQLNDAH
Briefly: Octet RED96 binding (S0.5). Also on record: Full-length HMBS was cloned into pET-28a(+)-TEV vector and transformed into BL21 (DE3) cells for expression; 6xHis (N, cleaved yes); TEV protease cleavage site (N, cleaved yes); made in house; host or cells: E. coli BL21 (DE3). Conditions: sigmoidal binding isotherm, SSA biosensors, biotinylated HMBS; read-out: S0.5 (concentration for half-maximal binding), Octet. On the procedure: The enzyme used in the binding assays using the Octet RED96 was expressed using a new construct with an N-terminal 6×HIS affinity tag and a TEV protease cleavage site. Full-length HMBS was cloned into pET-28a(+)-TEV vector and transformed into BL21 (DE3) cells for expression. Expression was done in Terrific Broth medium with IPTG induction. Cells were cultured 16 h at 20° C. with 220 rpm shaking. After harvesting, the cells were lysed with sonication, and standard affinity purification was performed using Ni-NTA affinity matrix. Protein was eluted with 20 mM HEPES, 150 mM NaCl (gel filtration buffer), pH 8 supplemented with 400 mM imidazole. […]
Octet RED96 system (ForteBio Biologics by Molecular Devices, LLC., San Jose, Calif.) with super streptavidin (SSA) biosensors was used as an additional method for determining the Kd-value for the binding of the compounds. […] Triplicates for the concentration series of the compounds were measured, and double reference subtraction was applied for data analysis based on the steady-state kinetics with equilibrium binding signal (Req) using ForteBio Data analysis 9.0. […]
The binding of compounds BG-1 and BG-2 to HMBS was analyzed by surface plasmon resonance (SPR) and response units from concentration-dependent steady state measurements were analyzed assuming a 1:1 binding model. […]

The target in assay [2] is T2, WT-HMBS (Homo sapiens, UniProt P08397).
T2 construct: Full-length HMBS was cloned into pET-28a(+)-TEV vector and transformed into BL21 (DE3) cells for expression; 6xHis (N, cleaved yes); TEV protease cleavage site (N, cleaved yes); made in house; host or cells: E. coli BL21 (DE3)
T2 sequence (P08397 1-361): T1 sequence (P08397 1-361)
Briefly: Enzymatic activity assay of recombinant HMBS, standard conditions. The assay is classed as biochemical. Conditions: 100 μM PBG at 37° C., 84 μM compound, 2% DMSO; relative to DMSO control. On the procedure:
The standard enzymatic activity of recombinant WT-HMBS was assayed at 37° C. as reported previously (Bustad et al., Bioscience reports, 2013; 33(4)). Compounds were added at a concentration of 84 μM. Absorbance of uroporphyrinogen I was determined at 405 nm. The enzyme activity in the presence of the compounds was normalized relative to DMSO-control (relative activity).
An enzymatic assay was performed to investigate the effect of compound BG-1 on the activity and conformational stability of HMBS. HMBS activity of the purified enzyme was measured in the absence and presence of compound BG-1 (at 84 μM) at standard conditions (37° C.) but also after pre-incubation at 70° C. for 20 min based on the high thermal stability of WT-HMBS.

Turning to `O=Cc1cc(Cc2ccccc2Cl)cc([N+](=O)[O-])c1O` [BG-1], the Kd in assay [1] was determined as 83 ± 7 µM. In assay [2], the “Relative activity, standard” value is 0.98 ± 0.06.

Source of the values: patent publication US20230225991A1, “COMPOUNDS FOR USE IN THE TREATMENT OF ACUTE INTERMITTENT PORPHYRIA” (VESTLANDETS INNOVASJONSSELSKAP AS, priority 2019, published 2023).
